US10273266B2, “Multi-functional peptide benefiting expression, purification, stabilization and catalytic efficiency of recombinant proteins” (priority 2017, dated 2019)

How the values were obtained:
Format in all cases: biochemical
[1] = target: Pseudomonas aeruginosa BBE lipoxygenase LOX-His (His-tag HHHHHH fusion), gene SEQ ID NO.6 (Pseudomonas aeruginosa, UniProt Q9I4G8); assay: Lipoxygenase kinetics with linoleic acid, LOX-His; settings: pH 7.5, 25° C., Value ± SD
From the text: (§1) FIG. 1. (A) Genetic constructs of the His-tag fusion proteins; (B) Genetic constructs of the S1v1 fusion proteins. S1v1, AEAEAHAHAEAEAHAH; linker, PTPPTTPTPPTTPTPT; His-tag, HHHHHH; Enzymes represented the encoding gene of three proteins (pgl, lox and gfp, respectively) used in this study.
(§2) The nucleotide sequence of PGL gene from Bacillus subtilis WSHB04-02 is shown as SEQ ID NO.4. The nucleotide sequence of LOX gene from Pseudomonas aeruginosa BBE is shown as SEQ ID NO.6. The nucleotide sequence of GFP gene from Aequorea victoria is shown as SEQ ID NO.8. E. coli JM109 was used as the host strain for cloning. E. coli BL21 (DE3) and E. coli Rosetta (DE3) were used as the expression hosts. The pET-22b (+) plasmid was used for expressing the recombinant proteins.
(§3) Linoleic acid was dispersed in 0.15 M K2HPO4—KH2PO4 buffer (pH 7.5). The substrate solution was freshly prepared daily and saturated with oxygen for 5 min before testing. Standard analytical mixture (3 mL) contains 0.3 mM linoleic acid and about 1.67 μg/mL enzyme. One unit of activity was defined as enzyme required to synthesis 1 μmol hydroperoxide per min at 25° C. Hydroperoxidaton was determined at 234 nm in a spectrophotometer (UV-2450; Shimadzu Co., Kyoto, Japan). The initial linear part of the wave was used to calculate enzyme activity.

[2] = target: Pseudomonas aeruginosa BBE lipoxygenase LOX-S1v1 (fused to self-assembling amphipathic peptide S1v1, […], SEQ ID NO.1), LOX gene SEQ ID NO.6 (Pseudomonas aeruginosa, UniProt Q9I4G8); assay: Lipoxygenase kinetics with linoleic acid, LOX-S1v1
Chain of Pseudomonas aeruginosa BBE lipoxygenase LOX-S1v1 (fused to self-assembling amphipathic peptide S1v1, […], SEQ ID NO.1), LOX gene SEQ ID NO.6 (Q9I4G8 20-685, added parts left off): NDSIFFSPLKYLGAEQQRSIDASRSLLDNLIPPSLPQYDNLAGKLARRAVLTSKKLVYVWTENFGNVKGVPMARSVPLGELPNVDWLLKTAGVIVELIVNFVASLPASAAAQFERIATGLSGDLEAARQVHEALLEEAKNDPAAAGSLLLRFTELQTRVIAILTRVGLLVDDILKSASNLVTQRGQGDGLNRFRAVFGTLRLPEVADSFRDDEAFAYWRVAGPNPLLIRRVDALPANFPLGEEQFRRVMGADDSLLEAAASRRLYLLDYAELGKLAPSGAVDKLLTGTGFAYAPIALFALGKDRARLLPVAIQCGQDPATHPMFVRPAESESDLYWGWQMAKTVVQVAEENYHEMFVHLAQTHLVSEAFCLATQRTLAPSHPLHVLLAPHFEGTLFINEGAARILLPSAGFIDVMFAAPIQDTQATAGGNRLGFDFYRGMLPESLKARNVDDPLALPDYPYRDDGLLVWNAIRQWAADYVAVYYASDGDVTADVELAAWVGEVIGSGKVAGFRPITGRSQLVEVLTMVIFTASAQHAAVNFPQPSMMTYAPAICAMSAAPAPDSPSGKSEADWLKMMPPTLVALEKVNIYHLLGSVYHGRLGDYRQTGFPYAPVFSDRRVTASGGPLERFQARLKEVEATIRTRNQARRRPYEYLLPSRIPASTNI
From the text: as §1, §2, §3
(2) The LOX gene (shown in SEQ ID NO. 6) was cloned into the recombinant vector pET-22b(+)/S1v1 at the restriction NcoI and XhoI sites to construct a recombinant plasmid pET-22b(+)/lox-S1v1.

[3] = target: Pseudomonas aeruginosa BBE lipoxygenase (LOX, EC 1.13.11.12), wild-type, gene SEQ ID NO.6 (Pseudomonas aeruginosa, UniProt Q9I4G8); assay: Lipoxygenase kinetics with linoleic acid, wild-type LOX; settings: pH 7.5, 25° C., Value ± SD
Chain of Pseudomonas aeruginosa BBE lipoxygenase (LOX, EC 1.13.11.12), wild-type, gene SEQ ID NO.6 (Q9I4G8 19-685, looked up, natural form): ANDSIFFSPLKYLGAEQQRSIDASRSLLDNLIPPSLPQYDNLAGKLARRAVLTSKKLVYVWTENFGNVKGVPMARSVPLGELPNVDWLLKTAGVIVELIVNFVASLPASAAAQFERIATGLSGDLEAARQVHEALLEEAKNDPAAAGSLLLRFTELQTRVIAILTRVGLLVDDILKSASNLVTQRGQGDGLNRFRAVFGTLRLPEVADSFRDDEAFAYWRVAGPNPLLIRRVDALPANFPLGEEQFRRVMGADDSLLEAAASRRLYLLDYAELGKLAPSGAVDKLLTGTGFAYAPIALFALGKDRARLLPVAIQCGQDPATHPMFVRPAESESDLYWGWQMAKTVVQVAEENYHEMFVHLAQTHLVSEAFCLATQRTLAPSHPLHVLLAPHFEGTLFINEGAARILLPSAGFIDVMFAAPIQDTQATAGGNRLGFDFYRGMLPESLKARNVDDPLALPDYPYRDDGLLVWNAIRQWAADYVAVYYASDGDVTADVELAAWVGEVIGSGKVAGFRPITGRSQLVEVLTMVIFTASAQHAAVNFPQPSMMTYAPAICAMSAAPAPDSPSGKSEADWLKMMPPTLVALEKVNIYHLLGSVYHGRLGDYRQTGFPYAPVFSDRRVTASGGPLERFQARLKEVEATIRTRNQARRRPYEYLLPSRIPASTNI
From the text: as §2, §3

[4] = increase of LOX-S1v1 than that of the wild-type LOX
[5] = linoleic acid, LOX-S1v1, pH 7.5, 25° C., Value ± SD

Chain of Pseudomonas aeruginosa BBE lipoxygenase LOX-His (His-tag HHHHHH fusion), gene SEQ ID NO.6 (Q9I4G8 19-685, looked up, natural form): as above

SMILES: CCCCC/C=C\C/C=C\CCCCCCCC(=O)O [linoleic acid, Linoleic acid]
- Km [1]: 55 ± 2 µM
- kcat [1]: 25.21 ± 1.02 S^−1
- Km value (in words) ([2]; fusion enzymes compared with wild-types, decrease in substrate affinity after S1v1 peptide fusion): higher Km value
- catalytic efficiencies (kcat/Km) increase [2, 4]: 1.3 fold
- kcat value increase [2, 4]: 2.4 fold
- Km [2, 5]: 83 ± 2 µM
- kcat [2, 5]: 83.2 ± 3.25 S^−1
- Km [3]: 57 ± 1.2 µM
- kcat [3]: 24.77 ± 0.97 S^−1
